This is an account of results in ChEMBL document CHEMBL2046294, “Lipo-γ-AApeptides as a new class of potent and broad-spectrum antimicrobial agents” (J Med Chem, 2012).

Data set [1] in a line: Toxicity in human RBC assessed as hemolysis after 1 hr. The data set is classed as cell-based, Erythrocyte. Conditions: for HC10: erythrocyte, 1 h; for HC50 at 1 h: red blood cells.
Another data set deals with Candida albicans. The data set can be described thus: Antifungal activity against Candida albicans ATCC 10231 after 48 hrs by broth micro-dilution method. The class given is functional. As to conditions: ATCC 10231, 48 h. (Dilution methods test growth across graded concentrations, often in twofold steps.)
The next data set relates to Enterococcus faecalis. Kind of data set: Antibacterial activity against vancomycin-resistant Enterococcus faecalis ATCC 700802 after 24 hrs by broth micro-dilution method. Conditions: ATCC 700802, 24 h. The data set is classed as functional.
The next data set concerns Klebsiella pneumoniae. The data set can be described thus: Antibacterial activity against Klebsiella pneumoniae ATCC 13383 after 24 hrs by broth micro-dilution method. The class given is functional. Conditions: ATCC 13383, 24 h.
The test system of data set [2] is Staphylococcus epidermidis. The data set can be described thus: Antibacterial activity against multidrug-resistant Staphylococcus epidermidis RP62A after 24 hrs by broth micro-dilution method. The data set is classed as functional.
Data set [3] deals with Bacillus subtilis. Kind of data set: Antibacterial activity against Bacillus subtilis BR151 after 24 hrs by broth micro-dilution method. The class given is functional. Conditions: BR151, 24 h.
Data set [4] deals with Escherichia coli. Kind of data set: Antibacterial activity against Escherichia coli JM109 after 24 hrs by broth micro-dilution method. The data set is classed as functional. As to conditions: JM109, 24 h.
Data set [5] concerns Staphylococcus aureus. Kind of data set: Antibacterial activity against methicillin-resistant Staphylococcus aureus ATCC 33592 after 24 hrs by broth micro-dilution method. As to conditions: ATCC 33592, 24 h. The class given is functional.
Another data set concerns Pseudomonas aeruginosa. Kind of data set: Antibacterial activity against multidrug-resistant Pseudomonas aeruginosa ATCC 27853 after 24 hrs by broth micro-dilution method. Conditions: ATCC 27853, 24 h. The class given is functional.
Data set [6] is described as follows: Selectivity ratio of HC50 for human RBC to MIC for methicillin-resistant Staphylococcus aureus ATCC 33592. The data set is classed as functional.
Data set [7] concerns Staphylococcus aureus. Kind of data set: Antibacterial activity against methicillin-resistant Staphylococcus aureus ATCC 33592 assessed as lipid membrane depolarization after 10 mins by DiSC3-5 staining-based fluorescence analysis. The data set is classed as functional, organism-based.
Data set [8] has as its system Bacillus subtilis. The data set can be described thus: Antibacterial activity against Bacillus subtilis BR151 assessed as loss membrane potential at 10 ug/ml. The data set is classed as functional, organism-based.
Data set [9] has as its system Escherichia coli. Kind of data set: Antibacterial activity against Escherichia coli JM109 assessed as membrane disruption at 10 ug/ml after 2 hrs by DAPI staining-based fluorescence microscopic analysis. The class given is functional, organism-based.
Data set [10] has as its system Escherichia coli. Kind of data set: Antibacterial activity against Escherichia coli JM109 assessed as loss membrane potential at 10 ug/ml. The data set is classed as functional, organism-based.
Data set [11] has as its system Bacillus subtilis. Kind of data set: Antibacterial activity against Bacillus subtilis BR151 assessed as membrane disruption at 10 ug/ml after 2 hrs by propidium iodide staining-based fluorescence microscopic analysis. The class given is functional, organism-based.
Data set [12] deals with Escherichia coli. Kind of data set: Antibacterial activity against Escherichia coli JM109 assessed as membrane disruption at 10 ug/ml after 2 hrs by propidium iodide staining-based fluorescence microscopic analysis. The data set is classed as functional, organism-based.
In data set [13] the test system is Bacillus subtilis. Kind of data set: Antibacterial activity against Bacillus subtilis BR151 assessed as membrane disruption at 10 ug/ml after 2 hrs by DAPI staining-based fluorescence microscopic analysis. The class given is functional, organism-based.
The test system of data set [14] is Staphylococcus aureus. Kind of data set: Resistance ratio, MIC for methicillin-resistant Staphylococcus aureus ATCC 33592 grown on half-MIC concentration for 3 passages to MIC for methicillin-resistant Staphylococcus aureus ATCC 33592 after 24 hrs. The class given is functional.

Usually HC50 stands for the concentration giving 50% haemolysis. As a reminder, the MIC is the least concentration at which growth counts as inhibited. A low value points to greater potency.

≈ marks a conversion by molar mass, not a printed value. Calls of active or inactive are those of the source. No cut-off for these calls is given here.

In the case of `CCCCCCCCCCCCCCCC(=O)N[C@@H](C)CN(CC(=O)N[C@@H](C)CN(CC(=O)N[C@@H](Cc1ccccc1)CN(CC(=O)N[C@@H](Cc1ccccc1)CN(CC(=O)N[C@@H](Cc1ccccc1)CN(CC(N)=O)C(=O)CC(=O)O)C(=O)CC(=O)O)C(=O)CC(=O)O)C(C)=O)C(C)=O`, the HC10 in [1] came to 200 µg/mL. In addition, the HC50 at 1 h in data set [1] is above 500 µg/mL. Also, the MIC (against Candida albicans; with Enterococcus faecalis; in the data set with Klebsiella pneumoniae; in data set [2]; against Bacillus subtilis [3]; against Escherichia coli [4]) was above 100 µg/mL each time. In addition, the MIC with Staphylococcus aureus [5] and against Pseudomonas aeruginosa was above 100 µg/mL each time.

As for `CCCCCCCCCCCCCCCC(=O)N[C@@H](C)CN(CC(=O)N[C@@H](C)CN(CC(=O)N[C@@H](CCCCN)CN(CC(=O)N[C@@H](CCCCN)CN(CC(=O)N[C@@H](CCCCN)CN(CC(N)=O)C(=O)CCCN)C(=O)CCCN)C(=O)CCCN)C(C)=O)C(C)=O`, the HC10 in data set [1] came to 200 µg/mL. For the same compound, the HC50 at 1 h in data set [1] was above 500 µg/mL. In addition, the MIC against Candida albicans worked out at 7.5 µg/mL (≈ 5.61 µM); in the data set on Enterococcus faecalis, 10 µg/mL (≈ 7.48 µM); in the data set with Klebsiella pneumoniae, 15 µg/mL (≈ 11.2 µM); in [2] it was 10 µg/mL (≈ 7.48 µM); with Bacillus subtilis [3] it was 2.5 µg/mL (≈ 1.87 µM); in the data set on Escherichia coli [4] it was 2.5 µg/mL (≈ 1.87 µM). In addition, the MIC with Staphylococcus aureus [5] is 10 µg/mL (≈ 7.48 µM); against Pseudomonas aeruginosa it was 15 µg/mL (≈ 11.2 µM). Besides, the Ratio in [6] is above 50. Also, the outcome with Staphylococcus aureus [7] was Active.

In the case of `CCCCCCCCCCCCCCCC(=O)N[C@@H](CCCCN)CN(CC(N)=O)C(=O)CCCN`, the HC10 in data set [1] came to 25 µg/mL. Moreover, in data set [1], the HC50 at 1 h turned out to be 40 µg/mL. Further, the minimum inhibitory concentration (MIC) in the data set with Candida albicans came out at 2 µg/mL (≈ 3.91 µM); with Enterococcus faecalis, 2.5 µg/mL (≈ 4.88 µM); against Klebsiella pneumoniae, 35 µg/mL (≈ 68.4 µM); in data set [2] it was 2 µg/mL (≈ 3.91 µM); with Bacillus subtilis [3] it was 1.5 µg/mL (≈ 2.93 µM); against Escherichia coli [4], 2.5 µg/mL (≈ 4.88 µM). For the same compound, the MIC against Staphylococcus aureus [5] turned out to be 2.5 µg/mL (≈ 4.88 µM); in the data set on Pseudomonas aeruginosa it was 10 µg/mL (≈ 19.5 µM). Further, the Ratio in [6] was found to be 16. Further, the outcome with Staphylococcus aureus [7] was Active.

With `CC(=O)N(CC(=O)N[C@@H](C)CN(CC(=O)N[C@@H](CC(C)C)CN(CC(=O)N[C@@H](CC(C)C)CN(CC(=O)N[C@@H](CC(C)C)CN(CC(N)=O)C(=O)CCCN)C(=O)CCCN)C(=O)CCCN)C(C)=O)C[C@H](C)N`, in [1], the HC10 was 120 µg/mL. Also, the HC50 at 1 h in data set [1] was above 500 µg/mL. Moreover, the MIC (in the data set with Candida albicans; in the data set with Enterococcus faecalis; in the data set with Klebsiella pneumoniae; in [2]; against Bacillus subtilis [3]; in the data set with Escherichia coli [4]) was above 100 µg/mL each time. Besides, the MIC against Staphylococcus aureus [5] and in the data set with Pseudomonas aeruginosa was above 100 µg/mL in each case.

For the compound `CCCCCCCC/C=C\CCCCCCCC(=O)N[C@@H](C)CN(CC(=O)N[C@@H](C)CN(CC(=O)N[C@@H](CC(C)C)CN(CC(=O)N[C@@H](CC(C)C)CN(CC(=O)N[C@@H](CC(C)C)CN(CC(N)=O)C(=O)CCCN)C(=O)CCCN)C(=O)CCCN)C(C)=O)C(C)=O`, the result with Bacillus subtilis [8], in the data set with Escherichia coli [9], in the data set with Staphylococcus aureus [7], with Escherichia coli [10], with Bacillus subtilis [11] and in the data set on Escherichia coli [12] was Active. In addition, the result in the data set on Bacillus subtilis [13] was Active. Further, in [1], the HC10 was 100 µg/mL. In data set [1], the HC50 at 1 h is above 500 µg/mL. Besides, the MIC in the data set with Candida albicans was 3 µg/mL (≈ 2.28 µM); in the data set on Enterococcus faecalis it was 4 µg/mL (≈ 3.04 µM); against Klebsiella pneumoniae it was 3 µg/mL (≈ 2.28 µM); in data set [2], 3 µg/mL (≈ 2.28 µM); against Bacillus subtilis [3] it was 3 µg/mL (≈ 2.28 µM); in the data set with Escherichia coli [4], 3 µg/mL (≈ 2.28 µM). In addition, the MIC with Staphylococcus aureus [5] and with Pseudomonas aeruginosa was 3 µg/mL (≈ 2.28 µM) throughout. Further, the Ratio in [6] was above 167.

In the case of `CC(C)C[C@@H](CN(CC(=O)N[C@@H](CCCCN)CN(CC(N)=O)C(=O)CCc1ccccc1)C(=O)CCc1ccccc1)NC(=O)CN(C[C@H](CCCCN)NC(=O)CN(C[C@H](CCCCN)NC(=O)CN(C[C@H](CC(C)C)NC(=O)CN(C[C@H](CCCCN)NC(=O)CN(C[C@@H](N)CCCCN)C(=O)CCc1ccccc1)C(=O)CCc1ccccc1)C(=O)CCc1ccccc1)C(=O)CCc1ccccc1)C(=O)CCc1ccccc1`, the HC10 in data set [1] was determined as 75 µg/mL. Further, in [1], the HC50 at 1 h turned out to be 300 µg/mL. Moreover, the MIC against Candida albicans was found to be 8 µg/mL (≈ 3.79 µM); in the data set on Enterococcus faecalis it was 5 µg/mL (≈ 2.37 µM); in the data set on Klebsiella pneumoniae, 5 µg/mL (≈ 2.37 µM); in [2], 5 µg/mL (≈ 2.37 µM); against Bacillus subtilis [3] it was 2 µg/mL (≈ 0.947 µM); against Escherichia coli [4], 3 µg/mL (≈ 1.42 µM). Besides, the figures for the MIC against Staphylococcus aureus [5] and against Pseudomonas aeruginosa were 5 µg/mL (≈ 2.37 µM) and above 50 µg/mL, respectively. For the same compound, the Ratio in [6] was found to be 60.

Turning to `CCn1cc(C(=O)O)c(=O)c2cc(F)c(N3CCNCC3)cc21` [NORFLOXACIN], the Ratio with Staphylococcus aureus [14] is reported as above 20.
